Data reported in ChEMBL document CHEMBL3779812, “Synthesis and evaluation of the cytotoxic activity of novel ethyl 4-[4-(4-substitutedpiperidin-1-yl)]benzyl-phenylpyrrolo[1,2-a]quinoxaline-carboxylate derivatives in myeloid and lymphoid leukemia cell lines” (Eur J Med Chem, 2016).

Columns and labels:
[1] = Antiproliferative activity against human HL60 cells measured after 3 days by MTS assay; format: functional, cell-based; details: HL-60, 72 h
[2] = Antiproliferative activity against human U266 cells measured after 3 days by MTS assay; format: functional, cell-based; details: U-266, 72 h
[3] = system: Jurkat; test: Antiproliferative activity against human Jurkat cells measured after 3 days by MTS assay; format: functional, cell-based; details: 72 h
[4] = system: K562; test: Antiproliferative activity against human K562 cells measured after 3 days by MTS assay; format: functional, cell-based; details: K562, 72 h
[5] = Antiproliferative activity against human U937 cells measured after 3 days by MTS assay; format: functional, cell-based; details: U-937, 72 h
[6] = system: PBMC; test: Cytotoxicity against PHA induced human PBMC after 3 days by MTS assay; format: cell-based; details: 72 h
[7] = Selectivity index, ratio of IC50 for human PBMC to IC50 for human U266 cells; parameters: species or system U-266
[8] = Selectivity index, ratio of IC50 for human PBMC to IC50 for human U937 cells; parameters: species or system U-937
[9] = Selectivity index, ratio of IC50 for human PBMC to IC50 for human Jurkat cells
[10] = Selectivity index, ratio of IC50 for human PBMC to IC50 for human K562 cells
[11] = system: K562; test: Induction of apoptosis in human K562 cells at 10 uM measured on day 3 by APC-Annexin-V staining based flow cytometry; format: functional

Compound | IC50 [3] [µM] | IC50 [4] [µM] | IC50 [1] [µM] | IC50 [2] [µM] | IC50 [5] [µM] | IC50 [6] [µM] | Ratio IC50 [7] | Ratio IC50 [8] | Ratio IC50 [9] | Ratio IC50 [10] | Activity [11] [%]
O=c1cc(N2CCOCC2)oc2c(-c3ccccc3)cccc12 [LY-294002] | 22 | 38 | 14 | 46 | 14 | > 50 | – | – | – | – | –
O=c1[nH]c2ccccc2n1C1CCN(Cc2ccc(-c3nc4cc5[nH]cnc5cc4nc3-c3ccccc3)cc2)CC1 | 3.5 | 17 | 5.5 | – | 8 | > 50 | – | – | – | – | –
O=c1[nH]c2ccccc2n1C1CCN(Cc2ccc(-c3nc4ccccc4n4ccc(-c5ccccc5)c34)cc2)CC1 | – | – | 2 | – | – | – | – | – | – | – | –
O=c1[nH]c2ccccc2n1C1CCN(Cc2ccc(-c3nc4ccccc4n4cccc34)cc2)CC1 | – | 4.5 | – | – | – | – | – | – | – | – | –
O=c1[nH]c2ccccc2n1C1CCN(Cc2ccc(-c3nc4ccccc4n4cc5ccccc5c34)cc2)CC1 | 5 | 5 | 5 | – | – | – | – | – | – | – | –
CCOC(=O)c1c(-c2ccccc2)cn2c1c(-c1ccc(CN3CCC(n4c(=O)[nH]c5ccccc54)CC3)cc1)nc1ccccc12 | 41 | 4 | > 50 | > 50 | > 50 | > 50 | – | – | – | >12.5 | –
CCOC(=O)c1cc2c(-c3ccc(CN4CCC(n5c(=O)[nH]c6ccccc65)CC4)cc3)nc3ccccc3n2c1-c1ccccc1 | 6.5 | 8.5 | > 50 | > 50 | > 50 | > 50 | – | – | – | – | –
CCOC(=O)c1cn2c(c(-c3ccc(CN4CCC(n5c(=O)[nH]c6ccccc65)CC4)cc3)nc3ccccc32)c1-c1ccccc1 | 4 | 9 | 3.5 | 10 | > 50 | 41.3 | – | – | – | – | –

The next lines start with results.

IC50 [3] [µM] | IC50 [4] [µM] | Compound | IC50 [1] [µM] | IC50 [2] [µM] | IC50 [5] [µM] | IC50 [6] [µM] | Ratio IC50 [7] | Ratio IC50 [8] | Ratio IC50 [9] | Ratio IC50 [10] | Activity [11] [%]
2 | 7 | CCOC(=O)c1cn2c(c(-c3ccc(CN4CCC(c5nnc(-c6ccccn6)[nH]5)CC4)cc3)nc3ccccc32)c1-c1ccccc1 | 5 | 5 | 7 | 8 | – | – | – | – | –
6 | 7 | CCOC(=O)c1cc(-c2ccccc2)n2c1c(-c1ccc(CN3CCC(c4nc5ccc(F)cc5[nH]4)CC3)cc1)nc1ccccc12 | 8 | 4 | 4 | 50 | 12.5 | 12.5 | – | – | –
3 | 3.5 | CCOC(=O)c1cc2c(-c3ccc(CN4CCC(c5nnc(-c6ccccn6)[nH]5)CC4)cc3)nc3ccccc3n2c1-c1ccccc1 | 7 | 3 | 8 | 12 | – | – | – | – | –
4 | 8 | CCOC(=O)c1cc(-c2ccccc2)n2c1c(-c1ccc(CN3CCC(n4c(=O)[nH]c5ccccc54)CC3)cc1)nc1ccccc12 | 6 | 9 | 9 | > 50 | – | – | >12.5 | – | –
5 | 12 | CCOC(=O)c1cc(-c2ccccc2)n2c1c(-c1ccc(CN3CCC(c4nnc(-c5ccccn5)[nH]4)CC3)cc1)nc1ccccc12 | 24 | 8 | 11 | 50 | – | – | – | – | –
5 | 3 | CCOC(=O)c1c(-c2ccccc2)cn2c1c(-c1ccc(CN3CCC(c4nc5ccc(F)cc5[nH]4)CC3)cc1)nc1ccccc12 | 19 | 3.5 | 21 | 14 | – | – | – | – | –
3.5 | 3 | CCOC(=O)c1cc2c(-c3ccc(CN4CCC(c5nc6ccc(F)cc6[nH]5)CC4)cc3)nc3ccccc3n2c1-c1ccccc1 | 3 | 3 | 3 | 13 | – | – | – | – | –
5 | 14 | CCOC(=O)c1c(-c2ccccc2)cn2c1c(-c1ccc(CN3CCC(c4nnc(-c5ccccn5)[nH]4)CC3)cc1)nc1ccccc12 | 12 | > 50 | 7 | 16 | – | – | – | – | –
5 | 3 | CCOC(=O)c1cn2c(c(-c3ccc(CN4CCC(c5nc6ccc(F)cc6[nH]5)CC4)cc3)nc3ccccc32)c1-c1ccccc1 | 10 | 18 | – | > 50 | – | – | – | >16.7 | 92
